# Source: PubChem BioAssay (NCI)
#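 Tested at 5 concentrations; 48 h exposure; 96-well plates; endpoints linearly interpolated, else capped at highest concentration. TGI: total growth inhibition.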
# Key:
# Test in all cases: NCI tumour cell line growth inhibition, 48 h
# CAKI-1 renal = test system: CAKI-1 renal
# CCRF-CEM leukemia = test system: CCRF-CEM leukemia
# HCT-15 colon = test system: HCT-15 colon
# HL-60(TB) leukemia = test system: HL-60(TB) leukemia
# HT29 colon = test system: HT29 colon
# IGROV1 ovarian = test system: IGROV1 ovarian
# K-562 leukemia = test system: K-562 leukemia
# NCI-H23 lung = test system: NCI-H23 lung
# SF-295 CNS = test system: SF-295 CNS
# UACC-257 melanoma = test system: UACC-257 melanoma
Compound,TGI (CAKI-1 renal) [µM],TGI (CCRF-CEM leukemia) [µM],TGI (HCT-15 colon) [µM],TGI (HL-60(TB) leukemia) [µM],TGI (HT29 colon) [µM],TGI (IGROV1 ovarian) [µM],TGI (K-562 leukemia) [µM],TGI (NCI-H23 lung) [µM],TGI (SF-295 CNS) [µM],TGI (UACC-257 melanoma) [µM]
Cc1cccc2oc3c(c(=O)c12)CC(O)C(C)(C)O3 (stereo not given),> 100,> 100,> 100,48.3,> 100,> 100,> 100,> 100,> 100,> 100
c1ccc2cc3c(NC4=NCCO4)cccc3cc2c1,> 100,81.6,> 100,52.1,80.4,> 100,> 100,> 100,> 100,> 100
Cc1ccc(O)c(C2=CC3=NNC(=O)C3C(c3cccc(Cl)c3)C2)c1 (stereo not given),> 100,> 100,> 100,> 100,63.9,> 100,> 100,> 100,> 100,> 100
Cc1ccc(-c2c(-c3ccccc3)[nH]c(C)c2C(=O)ONC(=O)c2ccccc2)cc1,5.48,> 27.1,24.1,2.02,> 42.4,3.15,6.72,17.4,4.17,27.3
CN=C(Nc1ccc(OC)c2ccccc12)SC,> 10,> 10,> 10,> 10,> 10,> 10,> 10,> 10,> 10,> 10
O=C(Cn1cc(Br)c(=O)[nH]c1=O)c1ccc(-c2ccccc2)cc1,> 41.8,> 20.2,39.7,> 35.1,> 100,> 33.1,> 17.3,> 27.5,> 100,> 100
O=c1[nH]c(SCc2cccc([N+](=O)[O-])c2)nc2nc[nH]c12,> 100,> 100,> 100,> 100,> 100,> 100,> 100,> 100,> 100,> 100
O=[N+]([O-])C(/C(Cl)=C(\Cl)Br)=C(/Cl)SCc1ccccc1,3.78,6.25,8.53,2.18,5.54,13.1,4.12,14.9,35.9,22.1
Cc1ccc(S(=O)(=O)CNC(=O)C(O)(O)C(F)(F)F)cc1,> 100,> 100,> 100,> 100,> 100,> 100,> 100,> 100,> 100,> 100
